Reference: US8153795B2, “Substituted 1-oxa-3,8-diazaspiro[4.5]-decan-2-one-compounds and the use thereof for producing drugs” (Gruenenthal GmbH, priority 2005, dated 2012)

target: T1, 5-HT transporter (Rattus norvegicus, UniProt P31652); assay: 5-HT uptake inhibition in rat brain synaptosomes (medulla and pons), [3H]-5-HT; format: biochemical
T1 construct: from tissue; host or cells: rat brain synaptosomes (P2 fraction) from medulla and pons
Excerpt: a) Method for Determining Noradrenalin and 5-HT Uptake Inhibition:
Synaptosomes from rat brain regions are freshly isolated for in vitro studies, as described in the publication “The isolation of nerve endings from brain” by E. G. Gray and V. P. Whittaker, J. Anatomy 96, pages 79-88, 1962. The corresponding literature description is hereby introduced as a reference and is deemed to be part of the disclosure.
The tissue (hypothalamus for the determination of noradrenalin uptake inhibition and medulla and pons for the determination of 5-HT uptake inhibition) is homogenised in ice-cooled 0.32 M sucrose (100 mg of tissue/1 mL) in a glass homogeniser with Teflon pestle using five complete up and down strokes at 840 revolutions/minute.
The homogenate is centrifuged at 4° C. for 10 minutes at 1000 g. After subsequent centrifugation at 17000 g for 55 minutes, the synaptosomes (P2 fraction) are obtained, which are resuspended in 0.32 M […] (0.5 mL/100 mg of original weight).
The particular uptake is measured in a 96-well microtitre plate. The volume is 250 μl and the incubation proceeds at room temperature (approx. 20-25° C.) under an O2 atmosphere.
The incubation time is 7.5 minutes for [^3H]-NA and 5 minutes for [^3H]-5-HT. The 96 samples are then filtered through a Unifilter GF/B® microtitre plate (Packard) and washed with 200 mL of incubated buffer using a “Brabdel MPXRI-96T Cell-Harvester”. The Unifilter GF/B plate is dried for 1 hour at 55° C. The plate is then sealed with a Back Seal® (Packard) and 35 μl of scintillation fluid are added per well (Ultima Gold®, Packard). After sealing with a top Seal® (Packard) and establishing an equilibrium (around 5 hours), radioactivity is determined in a “Trilux 1450 Microbeta” (Wallac).
The quantity of protein used in the above determination corresponds to the values known from the literature, as for example described in “Protein measurement with the folin phenol reagent”, Lowry et al., J. Biol. Chem., 193, 265-275, 1951.
A detailed description of the method may additionally be found in the literature, for example in M. Ch. Frink, H.-H. Hennies, W. Engelberger, M. Haurand and B. Wilffert (1996) Arzneim.-Forsch./Drug Res. 46 (III), 11, 1029-1036.

T1 sequence (P31652 whole entry): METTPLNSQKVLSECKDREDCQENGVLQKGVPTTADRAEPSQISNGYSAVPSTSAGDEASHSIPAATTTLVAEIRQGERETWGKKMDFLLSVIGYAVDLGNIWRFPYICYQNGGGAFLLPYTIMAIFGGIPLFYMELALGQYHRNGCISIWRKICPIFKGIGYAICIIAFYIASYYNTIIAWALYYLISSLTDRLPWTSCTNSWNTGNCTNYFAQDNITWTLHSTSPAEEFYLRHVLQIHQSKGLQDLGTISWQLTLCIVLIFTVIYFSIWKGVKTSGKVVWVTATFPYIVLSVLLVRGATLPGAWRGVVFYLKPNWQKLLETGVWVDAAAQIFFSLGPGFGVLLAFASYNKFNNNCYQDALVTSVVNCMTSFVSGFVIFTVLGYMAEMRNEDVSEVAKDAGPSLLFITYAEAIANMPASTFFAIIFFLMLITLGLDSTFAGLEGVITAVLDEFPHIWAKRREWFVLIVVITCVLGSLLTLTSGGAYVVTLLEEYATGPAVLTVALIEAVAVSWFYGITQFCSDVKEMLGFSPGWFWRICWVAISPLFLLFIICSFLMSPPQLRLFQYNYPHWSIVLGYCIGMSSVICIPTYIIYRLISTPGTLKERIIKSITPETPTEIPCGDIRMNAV

Compared with `Cc1cc(C)cc(CN2CC3(CCN(S(=O)(=O)Cc4ccccc4Cl)CC3)OC2=O)c1` [Example 116, 8-(2-chlorobenzylsulfonyl)-3-(3,5-dimethylbenzyl)-1-oxa-3,8-diazaspiro[4.5]decan-2-one], `Cc1cc(C)cc(CN2CC3(CCN(C(=O)c4cccc(Cl)c4)CC3)OC2=O)c1` [Example 126, 8-(3-chlorobenzoyl)-3-(3,5-dimethylbenzyl)-1-oxa-3,8-diazaspiro[4.5]decan-2-one] is lower in inhibition at 10 µM: 76% for the first, 64% for the second.

Going from `Cc1cc(C)cc(CN2CC3(CCN(C(=O)c4ccc5nonc5c4)CC3)OC2=O)c1` [Example 117, 8-(benzo[1,2,5]oxadiazole-5-carbonyl)-3-(3,5-dimethylbenzyl)-1-oxa-3,8-diazaspiro[4.5]decan-2-one] to `Cc1cc(C)cc(CN2CC3(CCN(C(=O)c4ccc(F)c(Cl)c4)CC3)OC2=O)c1` [Example 131, 8-(3-chloro-4-fluorobenzoyl)-3-(3,5-dimethylbenzyl)-1-oxa-3,8-diazaspiro[4.5]decan-2-one], the inhibition at 10 µM falls from 73% to 63%.

`O=C1OC2(CCN(C(=O)c3ccc(-c4ccccc4)cc3)CC2)CN1Cc1ccc(I)cc1` [Example 118, 8-(biphenyl-4-carbonyl)-3-(4-iodobenzyl)-1-oxa-3,8-diazaspiro[4.5]decan-2-one] and `O=C1OC2(CCN(C(=O)c3ccc(Cl)nc3)CC2)CN1Cc1ccc2ccccc2c1` [Example 120, 8-(6-chloropyridine-3-carbonyl)-3-naphthalen-2-ylmethyl-1-oxa-3,8-diazaspiro[4.5]decan-2-one] are the same in inhibition at 10 µM: 66% for the first, 66% for the second.

First: Cc1cc(C)cc(CN2CC3(CCN(C(=O)c4ccccn4)CC3)OC2=O)c1 [Example 119, 3-(3,5-dimethylbenzyl)-8-(pyridine-2-carbonyl)-1-oxa-3,8-diazaspiro[4.5]decan-2-one]
Second: Cc1cc(C)cc(CN2CC3(CCN(C(=O)c4ccno4)CC3)OC2=O)c1 [Example 128, 3-(3,5-dimethylbenzyl)-8-(isoxazole-5-carbonyl)-1-oxa-3,8-diazaspiro[4.5]decan-2-one]
The inhibition at 10 µM of the first is higher: 67% for the first, 62% for the second.

`CCSc1ncccc1C(=O)N1CCC2(CC1)CN(Cc1cccc(Br)c1)C(=O)O2` [Example 121, 3-(3-bromobenzyl)-8-(2-ethylsulfanylpyridine-3-carbonyl)-1-oxa-3,8-diazaspiro[4.5]decan-2-one] and `O=C1OC2(CCN(C(=O)c3ccccn3)CC2)CN1Cc1cccc(Br)c1` [Example 129, 3-(3-bromobenzyl)-8-(pyridine-2-carbonyl)-1-oxa-3,8-diazaspiro[4.5]decan-2-one] are the same in inhibition at 10 µM: 77% for the first, 77% for the second.

Compared with `Cc1cc(C)cc(CN2CC3(CCN(C(=O)c4cc(C)on4)CC3)OC2=O)c1` [Example 122, 3-(3,5-dimethylbenzyl)-8-(5-methylisoxazole-3-carbonyl)-1-oxa-3,8-diazaspiro[4.5]decan-2-one], `Cc1cc(C)cc(CN2CC3(CCN(C(=O)c4c(F)ccc(C)c4F)CC3)OC2=O)c1` [Example 132, 8-(2,6-difluoro-3-methylbenzoyl)-3-(3,5-dimethylbenzyl)-1-oxa-3,8-diazaspiro[4.5]decan-2-one] is lower in inhibition at 10 µM: 68% for the first, 65% for the second.

Compared with `CCCCC(=O)N1CCC2(CC1)CN(Cc1cc([N+](=O)[O-])ccc1OC)C(=O)O2` [Example 123, 3-(2-methoxy-5-nitrobenzyl)-8-pentanoyl-1-oxa-3,8-diazaspiro[4.5]decan-2-one], `COc1cccc(CC(=O)N2CCC3(CC2)CN(Cc2cc([N+](=O)[O-])ccc2OC)C(=O)O3)c1` [Example 145, 3-(2-methoxy-5-nitrobenzyl)-8-[2-(3-methoxyphenyl)acetyl]-1-oxa-3,8-diazaspiro[4.5]decan-2-one] is higher in inhibition at 10 µM: 71% for the first, 77% for the second.

Going from `Cc1cc(C)cc(CN2CC3(CCN(C(=O)c4ccc(Br)cc4)CC3)OC2=O)c1` [Example 124, 8-(4-bromobenzoyl)-3-(3,5-dimethylbenzyl)-1-oxa-3,8-diazaspiro[4.5]decan-2-one] to `Cc1cc(C)cc(CN2CC3(CCN(C(=O)c4cccs4)CC3)OC2=O)c1` [Example 130, 3-(3,5-dimethylbenzyl)-8-(thiophene-2-carbonyl)-1-oxa-3,8-diazaspiro[4.5]decan-2-one], the inhibition at 10 µM falls from 72% to 70%.

First: COc1ccc([N+](=O)[O-])cc1CN1CC2(CCN(C(=O)c3cc(C(C)(C)C)oc3C)CC2)OC1=O [Example 125, 8-(5-tert-butyl-2-methylfuran-3-carbonyl)-3-(2-methoxy-5-nitrobenzyl)-1-oxa-3,8-diazaspiro[4.5]decan-2-one]
Second: COc1ccc([N+](=O)[O-])cc1CN1CC2(CCN(C(=O)c3cccc(N(C)C)c3)CC2)OC1=O [Example 138, 8-(3-dimethylaminobenzoyl)-3-(2-methoxy-5-nitrobenzyl)-1-oxa-3,8-diazaspiro[4.5]decan-2-one]
The inhibition at 10 µM of the first is lower: 63% for the first, 65% for the second.

Compared with `CCSc1ncccc1C(=O)N1CCC2(CC1)CN(Cc1ccccc1C(F)(F)F)C(=O)O2` [Example 127, 8-(2-ethylsulfanylpyridine-3-carbonyl)-3-(2-trifluoromethylbenzyl)-1-oxa-3,8-diazaspiro[4.5]decan-2-one], `O=C1OC2(CCN(C(=O)c3c(Cl)cccc3Cl)CC2)CN1Cc1ccccc1F` [Example 139, 8-(2,6-dichlorobenzoyl)-3-(2-fluorobenzyl)-1-oxa-3,8-diazaspiro[4.5]decan-2-one] is higher in inhibition at 10 µM: 63% for the first, 70% for the second.

`COC(=O)CCC(=O)N1CCC2(CC1)CN(Cc1cccc(Br)c1)C(=O)O2` [Example 133, 4-[3-(3-bromobenzyl)-2-oxo-1-oxa-3,8-diazaspiro[4.5]dec-8-yl]-4-oxobutanoic acid methyl ester] and `CCC(CC)C(=O)N1CCC2(CC1)CN(Cc1cccc(C#N)c1)C(=O)O2` [Example 134, 3-[8-(2-ethylbutyryl)-2-oxo-1-oxa-3,8-diazaspiro[4.5]dec-3-ylmethyl]benzonitrile] are the same in inhibition at 10 µM: 64% for the first, 64% for the second.

First: N#Cc1cccc(CN2CC3(CCN(S(=O)(=O)Cc4cccc(Br)c4)CC3)OC2=O)c1 [Example 135, 3-[8-(3-bromobenzylsulfonyl)-2-oxo-1-oxa-3,8-diazaspiro[4.5]dec-3-ylmethyl]benzonitrile]
Second: Cc1cc(C(=O)N2CCC3(CC2)CN(Cc2cccc(C#N)c2)C(=O)O3)ccc1Br [Example 147, 3-[8-(4-bromo-3-methylbenzoyl)-2-oxo-1-oxa-3,8-diazaspiro[4.5]dec-3-ylmethyl]benzonitrile]
The inhibition at 10 µM of the first is lower: 69% for the first, 73% for the second.

Going from `Cc1ccc(C(=O)N2CCC3(CC2)CN(Cc2ccc(F)c(F)c2)C(=O)O3)cc1` [Example 136, 3-(3,4-difluorobenzyl)-8-(4-methylbenzoyl)-1-oxa-3,8-diazaspiro[4.5]decan-2-one] to `O=C1OC2(CCN(C(=O)c3cccnc3Oc3ccccc3)CC2)CN1Cc1ccc(F)c(F)c1` [Example 146, 3-(3,4-difluorobenzyl)-8-(2-phenoxypyridine-3-carbonyl)-1-oxa-3,8-diazaspiro[4.5]decan-2-one], the inhibition at 10 µM falls from 67% to 63%.

First: COc1ccc([N+](=O)[O-])cc1CN1CC2(CCN(C(=O)c3cccnc3Oc3ccccc3)CC2)OC1=O [Example 140, 3-(2-methoxy-5-nitrobenzyl)-8-(2-phenoxypyridine-3-carbonyl)-1-oxa-3,8-diazaspiro[4.5]decan-2-one]
Second: O=C1OC2(CCN(C(=O)c3cccnc3Oc3ccccc3)CC2)CN1Cc1cccc(Br)c1 [Example 144, 3-(3-bromobenzyl)-8-(2-phenoxypyridine-3-carbonyl)-1-oxa-3,8-diazaspiro[4.5]decan-2-one]
The inhibition at 10 µM of the first is lower: 64% for the first, 81% for the second.

Compared with `COc1cccc(CC(=O)N2CCC3(CC2)CN(Cc2ccc4ccccc4c2)C(=O)O3)c1` [Example 141, 8-[2-(3-methoxyphenyl)acetyl]-3-naphthalen-2-ylmethyl-1-oxa-3,8-diazaspiro[4.5]decan-2-one], `O=C1OC2(CCN(C(=O)c3cc(C(F)(F)F)cc(C(F)(F)F)c3)CC2)CN1Cc1ccc(C(F)(F)F)cc1` [Example 143, 8-(3,5-bis-trifluoromethylbenzoyl)-3-(4-trifluoromethylbenzyl)-1-oxa-3,8-diazaspiro[4.5]decan-2-one] is lower in inhibition at 10 µM: 78% for the first, 66% for the second.

`N#Cc1ccc(CN2CC3(CCN(S(=O)(=O)c4ccc5c(c4)CN(C(=O)C(F)(F)F)CC5)CC3)OC2=O)cc1` [Example 142, 4-{2-oxo-8-[2-(2,2,2-trifluoroacetyl)-1,2,3,4-tetrahydroisoquinoline-7-sulfonyl]-1-oxa-3,8-diazaspiro[4.5]dec-3-ylmethyl}benzonitrile] was tested, and the inhibition at 10 µM was 67%.
